# Experimental data published in DBAASP.
# Legend:
# Experiment in all cases: ≥ marks a high value that may be exact or a test limit, other limits are often not marked, values filed in µg/mL are converted to µM
# [1] = test system: Bacillus subtilis KCTC 1021
# Escherichia coli = test system: Escherichia coli
# [2] = test system: Klebsiella pneumoniae ATCC 10031
# [3] = test system: Micrococcus luteus ATCC 4698
# [4] = test system: Pseudomonas aeruginosa ATCC 9027
# [5] = test system: Salmonella enterica subsp. enterica serovar Typhimurium ATCC 14028
# Serratia marcescens = test system: Serratia marcescens
# [6] = test system: Shigella dysenteriae ATCC 9752
# Aspergillus fumigatus = test system: Aspergillus fumigatus
# Bibersteinia trehalosi = test system: Bibersteinia trehalosi
# [7] = test system: Corynebacterium pseudotuberculosis ATCC 19410
# Klebsiella pneumoniae = test system: Klebsiella pneumoniae
# [8] = test system: Mannheimia haemolytica Serovar 1
# [9] = test system: Mannheimia haemolytica Serovar 2
# [10] = test system: Mannheimia haemolytica Serovar 6
# Pasteurella multocida = test system: Pasteurella multocida
# [11] = test system: Pseudomonas aeruginosa PAO1
# [12] = test system: Salmonella enterica subsp. arizonae
# Staphylococcus aureus = test system: Staphylococcus aureus
# Escherichia coli BL21 = test system: Escherichia coli BL21
# [13] = test system: Staphylococcus aureus USA 300
# [14] = test system: Streptococcus pyogenes M1T1 5448
# [15] = test system: Candida albicans ATCC 90028
# [16] = test system: Cryptococcus neoformans B3501
# [17] = test system: Escherichia coli ATCC 25922
# [18] = test system: Klebsiella pneumoniae ATCC 13833
# [19] = test system: Pseudomonas aeruginosa ATCC 27853
# [20] = test system: Staphylococcus aureus ATCC 25923
# Escherichia coli C600 = test system: Escherichia coli C600
# [21] = test system: Staphylococcus aureus 209P
smiles,measurement,setting,value
CC[C@H](C)[C@H](NC(=O)CN)C(=O)N[C@@H](CC(C)C)C(=O)N[C@@H](CC(=O)O)C(=O)N[C@H](C(=O)N[C@@H](CC(C)C)C(=O)N[C@@H](CCCCN)C(=O)N[C@@H](CCC(N)=O)C(=O)N[C@@H](Cc1ccccc1)C(=O)N[C@@H](C)C(=O)N[C@@H](CCCCN)C(=O)NCC(=O)N[C@H](C(=O)NCC(=O)N[C@@H](CCCCN)C(=O)N[C@@H](CC(=O)O)C(=O)N[C@@H](CC(C)C)C(=O)N[C@H](C(=O)N[C@@H](CCCCN)C(=O)NCC(=O)N[C@@H](C)C(=O)N[C@@H](C)C(=O)N[C@@H](CCC(N)=O)C(=O)O)C(C)C)C(C)C)[C@@H](C)O [GILDTLKQFAKGVGKDLVKGAAQ],MIC,[1],≥ 84.8 µM
same,MIC,Escherichia coli,> 84.8 µM
same,MIC,[2],≥ 84.8 µM
same,MIC,[3],≥ 84.8 µM
same,MIC,[4],> 84.8 µM
same,MIC,[5],> 84.8 µM
same,MIC,Serratia marcescens,≥ 84.8 µM
same,MIC,[6],≥ 84.8 µM
CC[C@H](C)[C@H](NC(=O)[C@H](CCCN=C(N)N)NC(=O)[C@H](CCCN=C(N)N)NC(=O)[C@H](CC(C)C)NC(=O)[C@@H](N)CC(N)=O)C(=O)N[C@H](C(=O)N[C@@H](CCCN=C(N)N)C(=O)N[C@@H](CCCCN)C(=O)N[C@H](C(=O)N[C@H](C(=O)N[C@@H](Cc1cnc[nH]1)C(=O)N[C@H](C(=O)N[C@H](C(=O)N[C@@H](CCCCN)C(=O)N[C@@H](CCCCN)C(=O)N[C@@H](Cc1ccc(O)cc1)C(=O)O)[C@@H](C)CC)[C@@H](C)CC)[C@@H](C)CC)[C@@H](C)CC)[C@@H](C)CC [NLRRIIRKIIHIIKKY],MIC,Aspergillus fumigatus,6.4 µM
same,MIC,Bibersteinia trehalosi,1.01 µM
same,MIC,[7],9.63 µM
same,MIC,Klebsiella pneumoniae,0.626 µM
same,MIC,[8],0.626 µM
same,MIC,[9],2.41 µM
same,MIC,[10],1.2 µM
same,MIC,Pasteurella multocida,1.01 µM
same,MIC,[11],1.2 µM
same,MIC,[12],2.41 µM
same,MIC,Staphylococcus aureus,4.81 µM
CC[C@H](C)[C@H](NC(=O)[C@H](CCCN=C(N)N)NC(=O)CNC(=O)[C@@H](NC(=O)[C@H](CCCCN)NC(=O)[C@H](CCCN=C(N)N)NC(=O)[C@@H](NC(=O)[C@H](Cc1ccc(O)cc1)NC(=O)[C@H](CCCN=C(N)N)NC(=O)[C@H](CCCN=C(N)N)NC(=O)[C@H](CC(C)C)NC(=O)[C@H](CCC(=O)O)NC(=O)[C@H](CCCCN)NC(=O)[C@H](C)NC(=O)[C@@H](NC(=O)[C@H](CCCN=C(N)N)NC(=O)[C@H](CC(N)=O)NC(=O)[C@@H](NC(=O)CNC(=O)[C@@H](N)Cc1c[nH]c2ccccc12)[C@@H](C)O)[C@@H](C)CC)[C@@H](C)CC)C(C)C)C(=O)N[C@@H](C)C(=O)N[C@@H](CCCN=C(N)N)C(=O)N[C@@H](CCCCN)C(=O)N[C@@H](C)C(=O)N[C@@H](Cc1c[nH]c2ccccc12)C(=O)O [WGTNRIAKELRRYIRKVGRIARKAW],MIC,Escherichia coli BL21,1 µM
same,MIC,[11],8 µM
same,MIC,[13],16 µM
same,MIC,[14],0.25 µM
CC[C@H](C)[C@H](NC(=O)[C@H](CCCN=C(N)N)NC(=O)[C@H](CC(N)=O)NC(=O)[C@H](Cc1ccccc1)NC(=O)[C@H](CC(C)C)NC(=O)CNC(=O)[C@H](CCSC)NC(=O)[C@@H](N)CC(C)C)C(=O)N[C@H](C(=O)N[C@@H](CCCN=C(N)N)C(=O)N[C@@H](CCCCN)C(=O)N[C@H](C(=O)N[C@H](C(=O)N[C@@H](CCCCN)C(=O)N[C@@H](CC(C)C)C(=O)N[C@@H](Cc1ccccc1)C(=O)N[C@@H](CC(N)=O)C(N)=O)C(C)C)C(C)C)[C@@H](C)CC [LMGLFNRIIRKVVKLFN],MIC,[15],16 µM
same,MIC,[16],4 µM
same,MIC,[17],8 µM
same,MIC,[18],8 µM
same,MIC,[19],16 µM
same,MIC,[20],8 µM
CC[C@H](C)[C@H](NC(=O)[C@H](Cc1cnc[nH]1)NC(=O)[C@H](C)NC(=O)[C@H](Cc1ccc(O)cc1)NC(=O)[C@@H](NC(=O)[C@H](CCCN=C(N)N)NC(=O)[C@H](Cc1ccccc1)NC(=O)[C@H](CC(C)C)NC(=O)[C@H](CCCN=C(N)N)NC(=O)[C@H](CCCCN)NC(=O)[C@H](CC(C)C)NC(=O)[C@@H](NC(=O)[C@@H](NC(=O)[C@H](CCCCN)NC(=O)[C@H](C)NC(=O)[C@@H](NC(=O)[C@H](CO)NC(=O)[C@H](CCSC)NC(=O)[C@@H](N)Cc1ccccc1)C(C)C)[C@@H](C)O)[C@@H](C)CC)C(C)C)C(=O)N[C@@H](Cc1ccc(O)cc1)C(N)=O [FMSVAKTILKRLFRVYAHIY],MIC,[15],8 µM
same,MIC,[16],2 µM
same,MIC,[17],4 µM
same,MIC,[18],4 µM
same,MIC,[19],8 µM
same,MIC,[20],4 µM
CC[C@H](C)[C@H](NC(=O)[C@H](Cc1cnc[nH]1)NC(=O)[C@@H](NC(=O)[C@@H](NC(=O)[C@H](CCCCN)NC(=O)[C@H](CCCN=C(N)N)NC(=O)[C@@H](NC(=O)[C@@H](NC(=O)[C@H](CCCN=C(N)N)NC(=O)[C@@H](N)CCCN=C(N)N)[C@@H](C)CC)[C@@H](C)CC)[C@@H](C)CC)[C@@H](C)CC)C(=O)N[C@H](C(=O)N[C@@H](CCCCN)C(N)=O)[C@@H](C)CC [RRIIRKIIHIIK],MIC,Aspergillus fumigatus,17.1 µM
same,MIC,Bibersteinia trehalosi,12.8 µM
same,MIC,[7],12.8 µM
same,MIC,Klebsiella pneumoniae,> 12.8 µM
same,MIC,[8],12.8 µM
same,MIC,[9],6.67 µM
same,MIC,[10],4.3 µM
same,MIC,Pasteurella multocida,12.8 µM
same,MIC,[11],1.09 µM
same,MIC,[12],12.8 µM
same,MIC,Staphylococcus aureus,> 12.8 µM
CC[C@H](C)[C@H](NC(=O)[C@H](CCCN=C(N)N)NC(=O)CNC(=O)[C@@H](NC(=O)[C@H](CCCCN)NC(=O)[C@H](CCCN=C(N)N)NC(=O)[C@@H](NC(=O)[C@H](Cc1ccc(O)cc1)NC(=O)[C@H](CCCN=C(N)N)NC(=O)[C@H](CCCN=C(N)N)NC(=O)[C@H](CC(C)C)NC(=O)[C@H](CCC(=O)O)NC(=O)[C@H](CCCCN)NC(=O)[C@H](C)NC(=O)[C@@H](NC(=O)[C@H](CCCN=C(N)N)NC(=O)[C@H](CC(N)=O)NC(=O)[C@@H](NC(=O)CNC(=O)[C@H](C)N)[C@@H](C)O)[C@@H](C)CC)[C@@H](C)CC)C(C)C)C(=O)N[C@@H](C)C(=O)N[C@@H](CCCN=C(N)N)C(=O)N[C@@H](CCCCN)C(=O)N[C@@H](Cc1c[nH]c2ccccc12)C(=O)N[C@@H](Cc1c[nH]c2ccccc12)C(=O)O [AGTNRIAKELRRYIRKVGRIARKWW],MIC,Escherichia coli BL21,0.25 µM
same,MIC,[11],8 µM
same,MIC,[14],1 µM
CC[C@H](C)[C@@H]1NC(=O)CNC(=O)[C@H](CCCN=C(N)N)NC(=O)[C@H](CCCN=C(N)N)NC(=O)[C@@H]2CSSC[C@H](NC1=O)C(=O)N[C@@H](Cc1ccc(O)cc1)C(=O)N[C@@H](CCCN=C(N)N)C(=O)N[C@@H](CCCN=C(N)N)C(=O)N[C@H](C(=O)N[C@@H](CCCN=C(N)N)C(=O)O)CSSC[C@H](NC(=O)[C@H](Cc1c[nH]c3ccccc13)NC(=O)[C@@H](N)CCCCN)C(=O)N[C@@H](Cc1ccccc1)C(=O)N[C@@H](CCCN=C(N)N)C(=O)N[C@@H](C(C)C)C(=O)N2 [KWCFRVCRRGICYRRCR],MIC,Escherichia coli C600,1.56 µM
same,MIC,[11],6.25 µM
same,MIC,[21],3.13 µM
CC[C@H](C)[C@@H]1NC(=O)CNC(=O)[C@H](CCCN=C(N)N)NC(=O)[C@H](CO)NC(=O)[C@@H]2CSSC[C@H](NC1=O)C(=O)N[C@@H](Cc1ccc(O)cc1)C(=O)N[C@@H](CCCN=C(N)N)C(=O)N[C@@H](CCCN=C(N)N)C(=O)N[C@H](C(=O)N[C@@H](CCCN=C(N)N)C(=O)O)CSSC[C@H](NC(=O)[C@H](Cc1c[nH]c3ccccc13)NC(=O)[C@@H](N)CCCCN)C(=O)N[C@@H](Cc1ccccc1)C(=O)N[C@@H](CCCN=C(N)N)C(=O)N[C@@H](C(C)C)C(=O)N2 [KWCFRVCSRGICYRRCR],MIC,Escherichia coli C600,0.8 µM
same,MIC,[11],3.13 µM
same,MIC,[21],3.13 µM
